Experiments:
[1] = biological target: hTRPA1 (Homo sapiens, UniProt O75762); experiment: Single cell confocal Ca2+ imaging (fluo-4) in transfected HEK293 cells; format: cell-based; set-up: host or cells: HEK293 (ATCC CRL-1573.3), transient; conditions: 100μM
Description: (§1) Human TRPM8 cDNA was a VersaClone from R&D Systems (RDC0188). Plasmids encoding human TRPA1 and human TRPV1 cDNA were purchased from DNASU plasmid repository (HsCD00080227 and HsCD00081472, respectively). The TRP channel coding sequences were subcloned into pCS2+ to introduce a COOH-term myc tag using the InFusion HD method (Clontech), HindIII/XhoI restriction enzymes (NEB) and the following primers: TRPM8 F–TGGGGACGTCGGAGC-aagctt-[…]; TRPM8 R–AAATCGATGGGATGC-ctcgag-[…]; TRPA1 F-GGACGTCGGAGC-aagctt- atgaagcgcagcctgagg; TRPA1 R-TCGATGGGATGC-ctcgag-[…]; TRPV1 F–GGACGTCGGAGC-aagctt-[…]; TRPV1 R-TCGATGGGATGC-ctcgag-cttctccccggaagcgg (where upper case specifies vector-specific sequences, italics indicate restriction sites, and lower case indicates TRP channel specific sequences). Primers are listed in a 5’ to 3’ orientation.
(§2) HEK293 cells (ATCC CRL-1573.3) were cultured in DMEM supplemented with 10% fetal bovine serum (FBS), penicillin (100 units/ml), streptomycin (100 μg/ml), and L-glutamine (290 μg/ml). Cells were transiently transfected (Lipofectamine LTX, Thermo Fisher) at a density of 2x10^6 cells per T-25 cell-culture flask with TRP channel cDNA. For Ca^2+ imaging assays, HEK293 cells were seeded onto 8-chambered coverglass slides (Thermo Fisher, 115411PK), at a density of 1x10^4 cells one day prior to imaging. Cells were washed twice with HBSS, and incubated with fluo-4-AM (4μM), pluronic F127 (0.4%) and probenecid (2.5mM) for 25 minutes at room temperature. Cells were then washed twice with HBSS, and left at room temperature (30 minutes) for de-esterification. Dishes were mounted on an Olympus IX81 microscope and fluorescence changes (λex = 488nM, λem = 513±15nm bandpass filter) monitored using a Yogokawa spinning disk confocal (CSU-X-M1N) and an Andor iXon Ultra 888 EMCCD camera.

[2] = biological target: hTRPM8 (Homo sapiens, UniProt Q7Z2W7); experiment: as above; format: cell-based; set-up: host or cells: HEK293 (ATCC CRL-1573.3), transient; conditions: for EC50: confocal imaging, Fig 4E, read-out: EC50, Ca2+ mobilization in TRPM8 expressing cells; for cytoplasmic Ca2+ signal in TRPM8 expressing cells: menthol 300μM, ±PZQ 100μM, (R)-PZQ or (S)-PZQ 50μM
Description: as §1, §2

Chain of hTRPM8 (Q7Z2W7 whole entry): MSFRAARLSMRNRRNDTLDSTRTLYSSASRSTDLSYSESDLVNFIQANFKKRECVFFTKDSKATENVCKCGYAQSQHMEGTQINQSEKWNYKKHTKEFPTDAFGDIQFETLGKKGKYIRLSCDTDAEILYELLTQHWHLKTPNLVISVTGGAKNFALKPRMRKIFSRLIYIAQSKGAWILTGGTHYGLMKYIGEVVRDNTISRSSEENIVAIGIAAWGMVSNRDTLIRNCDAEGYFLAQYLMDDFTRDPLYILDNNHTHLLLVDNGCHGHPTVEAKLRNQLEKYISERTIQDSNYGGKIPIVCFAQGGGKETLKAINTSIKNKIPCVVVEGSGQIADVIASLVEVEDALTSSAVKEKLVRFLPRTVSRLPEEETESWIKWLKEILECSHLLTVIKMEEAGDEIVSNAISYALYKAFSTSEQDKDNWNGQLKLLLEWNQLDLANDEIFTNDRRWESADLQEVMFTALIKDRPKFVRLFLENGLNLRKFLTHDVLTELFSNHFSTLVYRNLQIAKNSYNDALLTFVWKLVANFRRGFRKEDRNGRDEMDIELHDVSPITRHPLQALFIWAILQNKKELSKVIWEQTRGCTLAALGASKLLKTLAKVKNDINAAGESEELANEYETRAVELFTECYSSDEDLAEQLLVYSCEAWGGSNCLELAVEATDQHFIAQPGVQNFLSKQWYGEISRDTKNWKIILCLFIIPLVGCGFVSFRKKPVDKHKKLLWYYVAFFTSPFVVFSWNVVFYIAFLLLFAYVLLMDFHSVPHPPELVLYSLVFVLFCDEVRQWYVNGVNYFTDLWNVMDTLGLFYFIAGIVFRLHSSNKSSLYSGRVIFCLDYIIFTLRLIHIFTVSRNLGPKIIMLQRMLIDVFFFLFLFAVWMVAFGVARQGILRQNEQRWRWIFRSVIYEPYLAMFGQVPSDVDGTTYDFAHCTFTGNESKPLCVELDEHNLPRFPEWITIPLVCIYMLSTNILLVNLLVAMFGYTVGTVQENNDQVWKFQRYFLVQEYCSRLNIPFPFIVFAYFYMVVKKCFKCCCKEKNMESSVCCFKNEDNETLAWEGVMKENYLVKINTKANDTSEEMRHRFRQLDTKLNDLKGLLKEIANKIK
Chain of hTRPA1 (O75762 whole entry, the tested form may be a part): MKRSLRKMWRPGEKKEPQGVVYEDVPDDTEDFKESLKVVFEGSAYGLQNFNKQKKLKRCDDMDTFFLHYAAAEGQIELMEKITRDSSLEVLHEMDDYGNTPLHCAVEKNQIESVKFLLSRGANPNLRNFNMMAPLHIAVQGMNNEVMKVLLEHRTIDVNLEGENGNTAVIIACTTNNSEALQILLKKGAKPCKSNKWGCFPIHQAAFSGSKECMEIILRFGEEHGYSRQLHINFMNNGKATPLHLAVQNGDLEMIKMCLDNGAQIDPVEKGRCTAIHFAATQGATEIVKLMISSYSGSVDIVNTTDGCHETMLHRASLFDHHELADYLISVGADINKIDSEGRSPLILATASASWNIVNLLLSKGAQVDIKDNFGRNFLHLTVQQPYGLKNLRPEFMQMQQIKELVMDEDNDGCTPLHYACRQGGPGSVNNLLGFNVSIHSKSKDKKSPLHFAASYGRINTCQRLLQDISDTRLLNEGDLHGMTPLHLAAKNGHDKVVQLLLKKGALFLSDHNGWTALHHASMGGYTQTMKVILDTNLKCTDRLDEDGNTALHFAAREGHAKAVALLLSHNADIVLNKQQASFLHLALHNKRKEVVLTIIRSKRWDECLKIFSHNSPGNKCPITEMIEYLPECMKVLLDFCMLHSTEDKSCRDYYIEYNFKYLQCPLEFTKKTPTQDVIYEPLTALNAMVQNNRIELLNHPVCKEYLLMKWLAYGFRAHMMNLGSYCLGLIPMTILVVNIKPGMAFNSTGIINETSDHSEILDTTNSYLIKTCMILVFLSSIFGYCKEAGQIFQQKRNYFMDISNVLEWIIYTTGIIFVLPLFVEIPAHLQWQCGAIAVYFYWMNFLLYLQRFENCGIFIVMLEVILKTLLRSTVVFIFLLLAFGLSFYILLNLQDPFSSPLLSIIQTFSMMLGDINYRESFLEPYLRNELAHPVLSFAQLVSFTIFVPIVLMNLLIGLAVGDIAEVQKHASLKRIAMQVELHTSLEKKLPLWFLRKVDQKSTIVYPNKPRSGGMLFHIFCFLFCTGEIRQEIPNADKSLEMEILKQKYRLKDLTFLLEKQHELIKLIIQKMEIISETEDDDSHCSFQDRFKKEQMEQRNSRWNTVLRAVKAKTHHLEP

Ca2+ response in hTRPA1 expressing cells [1]	EC50 [2]	cytoplasmic Ca2+ signal in TRPM8 expressing cells [2]	SMILES
elicited Ca^2+ responses	19 ± 5 µM	evoked cytoplasmic Ca^2+ signals	O=C(C1CCCCC1)N1CC(=O)N2CCc3ccccc3C2C1 (racemic) [±PZQ, praziquantel]
activation of hTRPA1	19.2 ± 5.3 µM	evoked cytoplasmic Ca^2+ signals	O=C(C1CCCCC1)N1CC(=O)N2CCc3ccccc3[C@H]2C1 [(S)-PZQ]
